# Reference: PubChem BioAssay AID1259407 (Chemical Carcinogenesis Research Information System (CCRIS), 2018)
# Calls of active or inactive are those of the source. The rule behind the calls is not given here.
# System: CCRIS mutagenicity, Ames/micronucleus/aberration tests
# Assay: CCRIS mutagenicity studies
# [1] = Test System: AMES SALMONELLA TYPHIMURIUM, Strain/Indicator: TA97, Metabolic Activation: HAMSTER, LIVER, S-9, AROCLOR 1254 (10%), Method: PREINCUBATION
# [2] = Test System: AMES SALMONELLA TYPHIMURIUM, Strain/Indicator: TA97, Metabolic Activation: HAMSTER, LIVER, S-9, AROCLOR 1254 (30%), Method: PREINCUBATION
# [3] = Test System: AMES SALMONELLA TYPHIMURIUM, Strain/Indicator: TA97, Metabolic Activation: NONE, Method: PREINCUBATION
# [4] = Test System: AMES SALMONELLA TYPHIMURIUM, Strain/Indicator: TA97, Metabolic Activation: RAT, LIVER, S-9, AROCLOR 1254 (10%), Method: PREINCUBATION
# [5] = Test System: AMES SALMONELLA TYPHIMURIUM, Strain/Indicator: TA97, Metabolic Activation: RAT, LIVER, S-9, AROCLOR 1254 (30%), Method: PREINCUBATION
# [6] = Test System: AMES SALMONELLA TYPHIMURIUM, Strain/Indicator: TA98, Metabolic Activation: HAMSTER, LIVER, S-9, AROCLOR 1254 (10%), Method: PREINCUBATION
# [7] = Test System: AMES SALMONELLA TYPHIMURIUM, Strain/Indicator: TA98, Metabolic Activation: HAMSTER, LIVER, S-9, AROCLOR 1254 (30%), Method: PREINCUBATION
# [8] = Test System: AMES SALMONELLA TYPHIMURIUM, Strain/Indicator: TA98, Metabolic Activation: NONE, Method: PREINCUBATION
# [9] = Test System: AMES SALMONELLA TYPHIMURIUM, Strain/Indicator: TA98, Metabolic Activation: RAT, LIVER, S-9, AROCLOR 1254 (10%), Method: PREINCUBATION
# [10] = Test System: AMES SALMONELLA TYPHIMURIUM, Strain/Indicator: TA98, Metabolic Activation: RAT, LIVER, S-9, AROCLOR 1254 (30%), Method: PREINCUBATION
# [11] = Test System: AMES SALMONELLA TYPHIMURIUM, Strain/Indicator: TA100, Metabolic Activation: HAMSTER, LIVER, S-9, AROCLOR 1254 (10%), Method: PREINCUBATION
# [12] = Test System: AMES SALMONELLA TYPHIMURIUM, Strain/Indicator: TA100, Metabolic Activation: HAMSTER, LIVER, S-9, AROCLOR 1254 (30%), Method: PREINCUBATION
# [13] = Test System: AMES SALMONELLA TYPHIMURIUM, Strain/Indicator: TA100, Metabolic Activation: NONE, Method: PREINCUBATION
# [14] = Test System: AMES SALMONELLA TYPHIMURIUM, Strain/Indicator: TA100, Metabolic Activation: NONE, Method: STANDARD PLATE
# [15] = Test System: AMES SALMONELLA TYPHIMURIUM, Strain/Indicator: TA100, Metabolic Activation: RAT, LIVER, S-9, AROCLOR 1254 (10%), Method: PREINCUBATION
# [16] = Test System: AMES SALMONELLA TYPHIMURIUM, Strain/Indicator: TA100, Metabolic Activation: RAT, LIVER, S-9, AROCLOR 1254 (30%), Method: PREINCUBATION
# [17] = Test System: AMES SALMONELLA TYPHIMURIUM, Strain/Indicator: TA1535, Metabolic Activation: HAMSTER, LIVER, S-9, AROCLOR 1254 (10%), Method: PREINCUBATION
# [18] = Test System: AMES SALMONELLA TYPHIMURIUM, Strain/Indicator: TA1535, Metabolic Activation: HAMSTER, LIVER, S-9, AROCLOR 1254 (30%), Method: PREINCUBATION
# [19] = Test System: AMES SALMONELLA TYPHIMURIUM, Strain/Indicator: TA1535, Metabolic Activation: NONE, Method: PREINCUBATION
# [20] = Test System: AMES SALMONELLA TYPHIMURIUM, Strain/Indicator: TA1535, Metabolic Activation: RAT, LIVER, S-9, AROCLOR 1254 (10%), Method: PREINCUBATION
# [21] = Test System: AMES SALMONELLA TYPHIMURIUM, Strain/Indicator: TA1535, Metabolic Activation: RAT, LIVER, S-9, AROCLOR 1254 (30%), Method: PREINCUBATION
# [22] = Test System: AMES SALMONELLA TYPHIMURIUM, Strain/Indicator: TA1537, Metabolic Activation: NONE, Method: PREINCUBATION
# [23] = Test System: AMES SALMONELLA TYPHIMURIUM, Strain/Indicator: TA1537, Metabolic Activation: HAMSTER, LIVER, S-9, AROCLOR 1254 (10%), Method: PREINCUBATION
# [24] = Test System: AMES SALMONELLA TYPHIMURIUM, Strain/Indicator: TA1537, Metabolic Activation: RAT, LIVER, S-9, AROCLOR 1254 (10%), Method: PREINCUBATION
Compound,mutagenic call [1],mutagenic call [2],mutagenic call [3],mutagenic call [4],mutagenic call [5],mutagenic call [6],mutagenic call [7],mutagenic call [8],mutagenic call [9],mutagenic call [10],mutagenic call [11],mutagenic call [12],mutagenic call [13],mutagenic call [14],mutagenic call [15],mutagenic call [16],mutagenic call [17],mutagenic call [19],mutagenic call [20],mutagenic call [22],further results
Oc1c(Cl)ccc(Cl)c1Cl,inactive; negative,inactive; negative,inactive; negative,inactive; negative,inactive; negative,inactive; negative,inactive; negative,inactive; negative,inactive; negative,inactive; negative,inactive; negative,inactive; negative,inactive; negative,inactive; negative,inactive; negative,inactive; negative,inactive; negative,inactive; negative,inactive; negative,inactive; negative,"mutagenic call (End Point: IN VITRO CHROMOSOMAL ABERRATIONS, Test System: CHINESE HAMSTER LUNG CELLS (CHL), Metabolic Activation: RAT, LIVER, S-9, KC-400): active; positive (structural changes); mutagenic call (End Point: IN VITRO CHROMOSOMAL ABERRATIONS, Test System: CHINESE HAMSTER OVARY CELLS (CHO), Metabolic Activation: NONE): active; positive (structural changes); mutagenic call (End Point: IN VITRO CHROMOSOMAL ABERRATIONS, Test System: CHINESE HAMSTER OVARY CELLS (CHO), Metabolic Activation: RAT, LIVER, S-9, AROCLOR 1254): active; positive (structural changes); mutagenic call (Test System: AMES SALMONELLA TYPHIMURIUM, Strain/Indicator: TA97, Metabolic Activation: NONE, Method: STANDARD PLATE): inactive; negative; mutagenic call (Test System: AMES SALMONELLA TYPHIMURIUM, Strain/Indicator: TA97, Metabolic Activation: RAT, LIVER, S-9, AROCLOR 1254, Method: STANDARD PLATE): inactive; negative; mutagenic call (Test System: AMES SALMONELLA TYPHIMURIUM, Strain/Indicator: TA98, Metabolic Activation: NONE, Method: STANDARD PLATE): inactive; negative; mutagenic call (Test System: AMES SALMONELLA TYPHIMURIUM, Strain/Indicator: TA98, Metabolic Activation: RAT, LIVER, S-9, AROCLOR 1254, Method: STANDARD PLATE): active; positive; mutagenic call (Test System: AMES SALMONELLA TYPHIMURIUM, Strain/Indicator: TA100, Metabolic Activation: RAT, LIVER, S-9, AROCLOR 1254, Method: STANDARD PLATE): inactive; negative; mutagenic call (Test System: AMES SALMONELLA TYPHIMURIUM, Strain/Indicator: TA104, Metabolic Activation: NONE, Method: STANDARD PLATE): inactive; negative; mutagenic call (Test System: AMES SALMONELLA TYPHIMURIUM, Strain/Indicator: TA104, Metabolic Activation: RAT, LIVER, S-9, AROCLOR 1254, Method: STANDARD PLATE): inactive; negative; mutagenic call [18]: inactive; negative; mutagenic call [21]: inactive; negative; mutagenic call (Test System: AMES SALMONELLA TYPHIMURIUM, Strain/Indicator: TA1537, Metabolic Activation: HAMSTER, LIVER, S-9, AROCLOR 1254 (30%), Method: PREINCUBATION): inactive; negative; mutagenic call (Test System: AMES SALMONELLA TYPHIMURIUM, Strain/Indicator: TA1537, Metabolic Activation: RAT, LIVER, S-9, AROCLOR 1254 (30%), Method: PREINCUBATION): inactive; negative"
CCCCC(CC)COCCC#N (stereo not drawn),inactive; negative,inactive; negative,inactive; negative,inactive; negative,inactive; negative,inactive; negative,inactive; negative,inactive; negative,inactive; negative,inactive; negative,inactive; negative,inactive; negative,inactive; negative,–,inactive; negative,inactive; negative,inactive; negative,inactive; negative,inactive; negative,–,mutagenic call [18]: inactive; negative; mutagenic call [21]: inactive; negative
CCCN(CCC)S(=O)(=O)c1ccc(C(=O)O)cc1,–,–,–,–,–,inactive; negative,–,inactive; negative,inactive; negative,–,inactive; negative,–,inactive; negative,–,inactive; negative,–,inactive; negative,inactive; negative,inactive; negative,inactive; negative,mutagenic call [23]: inactive; negative; mutagenic call [24]: inactive; negative
CCCCC(CC)COS(=O)(=O)O (stereo not drawn),–,–,–,–,–,inactive; negative,–,inactive; negative,inactive; negative,–,inactive; negative,–,inactive; negative,–,inactive; negative,–,inactive; negative,inactive; negative,inactive; negative,inactive; negative,"mutagenic call (End Point: IN VITRO CHROMOSOMAL ABERRATIONS, Test System: CHO-LB CELLS, Metabolic Activation: NONE): inactive; negative; mutagenic call (End Point: IN VITRO CHROMOSOMAL ABERRATIONS, Test System: CHO-LB CELLS, Metabolic Activation: RAT, LIVER, S-9, AROCLOR 1254): inactive; negative; mutagenic call [23]: inactive; negative; mutagenic call [24]: inactive; negative; mutagenic call (Test System: MOUSE LYMPHOMA, Strain/Indicator: L5178Y (TK+/TK-), Metabolic Activation: NONE, Method: SUSPENSION/PLATE): inactive; negative; mutagenic call (Test System: MOUSE LYMPHOMA, Strain/Indicator: L5178Y (TK+/TK-), Metabolic Activation: RAT, LIVER, S-9, AROCLOR 1254, Method: SUSPENSION/PLATE): inactive; negative"
O=NN(c1ccc([N+](=O)[O-])cc1)C1OC[C@@H](O)[C@H](O)[C@@H]1O (stereo partly drawn),–,–,–,–,–,–,–,–,–,–,–,–,–,active; positive,–,–,–,–,–,–,–
